Laboratory results taken from patent publication US20250332173A1, “COMPOUNDS AND METHODS FOR MODULATING NUCLEIC ACID SPLICING” (REMIX THERAPEUTICS INC., priority 2021, published 2025).
pIC50: −log10 of the molar value. Where two headings read alike, the source gives them in different places.

Columns and labels:
[1] = tested on: HTT mRNA; test: RT-qPCR splicing assay, HTT canonical junction (CJ) and alternative junction (AJ) mRNA; type: cell-based, human; conditions: for AC50: increase in HTT alternative junction (AJ) mRNA, read-out: HTT AJ AC50
Outline: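 A673 cells (normalized to PPIA) or K562 cells (normalized to GAPDH or GUSB) were treated 24 h at 37 °C with an 11-point 3-fold dilution series, top 10 uM, DMSO ≤0.25%. Cell lysates went to one-step RT-qPCR measuring canonical- and alternative-junction MYB or HTT transcripts.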

[2] = tested on: HTT; test: HiBiT protein abundance assay, HTT HiBiT K562 cell line; type: cell-based, human; conditions: HiBiT K562 cell line, 24 hours, top dose 10 μM; read-out: Effect on protein abundance, HTT (IC50 category)
Outline: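 K562 knock-in lines with endogenous HiBiT-tagged target, 10,000 cells/well in IMDM + FBS, treated 24 h at 37° C with 10-point 3-fold dilutions (top 10 μM final; DMSO ≤0.25%). Lytic Nano-Glo HiBiT luminescence normalized to untagged K562 baseline and DMSO controls; IC50 = concentration giving 50% abundance via four-parameter fit.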

[3] = Homo sapiens, decrease in HTT canonical junction (CJ) mRNA, RT-qPCR, read-out: HTT CJ IC50
[4] = Homo sapiens, Table 5 panel, canonical junction qPCR, compound concentration having 50% response in CJ decrease, read-out: HTT IC50 (decrease in CJ mRNA levels)

## Cc1cn2cc(-c3ccc4c(c3)CCN(C3CCNCC3)C4=O)cc(C(F)(F)F)c2n1 [Compound 252]
[1]; [3]
  pIC50: < 5.00
[1]; Homo sapiens, RT-qPCR
  AC50: > 10000 nM
[1]; [4]
  pIC50: < 5.00
[2]
  pIC50: < 5.00

## Cc1cn2nc(-c3ccc4c(=O)n(C5CCNC5)ncc4c3)cc(C)c2n1 (centres unmarked) [Compound 264]
[1]; [3]
  pIC50: 5.00 to 6.00
[1]; Homo sapiens, RT-qPCR
  AC50: 1000 to 10000 nM
[1]; [4]
  pIC50: 5.00 to 6.00
[2]
  pIC50: 5.00 to 6.00

## Cc1cn2nc(-c3ccc4c(=O)n(C5CCNCC5)ncc4c3)nc2c(C)n1 [Compound 259]
[1]; [3]
  pIC50: 6.00 to 7.00
[1]; Homo sapiens, RT-qPCR
  AC50: 100 to 1000 nM
[1]; [4]
  pIC50: 6.00 to 7.00
[2]
  pIC50: 6.00 to 7.00

## Cn1cc2ccc(-c3ccc4c(=O)n(C5CCNCC5)ncc4c3)cc2n1 [Compound 263]
[1]; [3]
  pIC50: < 5.00
[1]; Homo sapiens, RT-qPCR
  AC50: > 10000 nM
[1]; [4]
  pIC50: < 5.00
[2]
  pIC50: < 5.00

## Cc1cn2cc(-c3ccc4c(=O)n(C5CCNCC5)cnc4c3)c(C)cc2n1 [Compound 244]
[1]; [3]
  pIC50: < 5.00
[1]; Homo sapiens, RT-qPCR
  AC50: > 10000 nM
[1]; [4]
  pIC50: < 5.00
[2]
  pIC50: < 5.00

## Cc1cn2nc(-c3cc(F)c4c(=O)n(C5CCNCC5)cnc4c3)cc(C)c2n1 [Compound 243]
[1]; [3]
  pIC50: > 7.00
[1]; Homo sapiens, RT-qPCR
  AC50: < 100 nM
[1]; [4]
  pIC50: > 7.00
[2]
  pIC50: > 7.00

## Cc1cn2cc(-c3ccc4c(=O)n(C5CCN(C)CC5)cnc4c3)c(C)cc2n1 [Compound 246]
[1]; [3]
  pIC50: 5.00 to 6.00
[1]; Homo sapiens, RT-qPCR
  AC50: 1000 to 10000 nM
[1]; [4]
  pIC50: 5.00 to 6.00
[2]
  pIC50: 5.00 to 6.00

## Cc1cn2cc(-c3ccc4c(=O)n(C5CCNCC5)ncc4c3)cc(F)c2n1 [Compound 248]
[1]; [3]
  pIC50: 6.00 to 7.00
[1]; Homo sapiens, RT-qPCR
  AC50: < 100 nM
[1]; [4]
  pIC50: > 7.00
[2]
  pIC50: > 7.00

## Cc1cn2cc(-c3ccc4c(=O)n(C5CCNCC5)ncc4c3)c(C)cc2n1 [Compound 254]
[1]; [3]
  pIC50: 5.00 to 6.00
[1]; Homo sapiens, RT-qPCR
  AC50: 1000 to 10000 nM
[1]; [4]
  pIC50: 5.00 to 6.00
[2]
  pIC50: 5.00 to 6.00

## Cc1nc2c(F)cc(-c3ccc4c(=O)n(C5CCNCC5)ncc4c3)cc2o1 [Compound 250]
[1]; [3]
  pIC50: > 7.00
[1]; Homo sapiens, RT-qPCR
  AC50: < 100 nM
[1]; [4]
  pIC50: > 7.00
[2]
  pIC50: > 7.00

## Cc1cn2cc(-c3ccc4c(=O)n(C5CCNCC5)ncc4c3)cc(C(F)(F)F)c2n1 [Compound 262]
[1]; [3]
  pIC50: 5.00 to 6.00
[1]; Homo sapiens, RT-qPCR
  AC50: 1000 to 10000 nM
[1]; [4]
  pIC50: 5.00 to 6.00
[2]
  pIC50: 5.00 to 6.00

## Cc1cn2cc(-c3ccc4c(=O)n(C5CCNCC5)ncc4c3)ncc2n1 [Compound 255]
[1]; [3]
  pIC50: 5.00 to 6.00
[1]; Homo sapiens, RT-qPCR
  AC50: 1000 to 10000 nM
[1]; [4]
  pIC50: 5.00 to 6.00
[2]
  pIC50: < 5.00

## Cc1cn2cc(-c3ccc4c(=O)n(C5CCNCC5)ncc4c3)cc(Cl)c2n1 [Compound 256]
[1]; [3]
  pIC50: 6.00 to 7.00
[1]; Homo sapiens, RT-qPCR
  AC50: 100 to 1000 nM
[1]; [4]
  pIC50: 6.00 to 7.00
[2]
  pIC50: 6.00 to 7.00

## Cc1nc2c(F)cc(-c3ccc4c(=O)n(C5CCNCC5)ncc4c3)cc2s1 [Compound 253]
[1]; [3]
  pIC50: 5.00 to 6.00
[1]; Homo sapiens, RT-qPCR
  AC50: 1000 to 10000 nM
[1]; [4]
  pIC50: 5.00 to 6.00
[2]
  pIC50: 5.00 to 6.00

## Cc1cn2cc(-c3ccc4c(c3)CCN(C3CCNCC3)C4=O)cc(F)c2n1 [Compound 247]
[1]; [3]
  pIC50: 5.00 to 6.00
[1]; Homo sapiens, RT-qPCR
  AC50: 1000 to 10000 nM
[1]; [4]
  pIC50: 5.00 to 6.00
[2]
  pIC50: 6.00 to 7.00

## Cc1cc(-c2ccc3c(=O)n(C4CCNCC4)ncc3c2)cc2cn(C)nc12 [Compound 251]
[1]; [3]
  pIC50: 6.00 to 7.00
[1]; Homo sapiens, RT-qPCR
  AC50: 100 to 1000 nM
[1]; [4]
  pIC50: 6.00 to 7.00
[2]
  pIC50: 6.00 to 7.00

## Cn1cc2cc(-c3ccc4c(=O)n(C5CCNCC5)ncc4c3)cc(F)c2n1 [Compound 249]
[1]; [3]
  pIC50: 5.00 to 6.00
[1]; Homo sapiens, RT-qPCR
  AC50: 1000 to 10000 nM
[1]; [4]
  pIC50: 5.00 to 6.00
[2]
  pIC50: 5.00 to 6.00

## Cc1nc2c(F)cc(-c3ccc4c(=O)n(C5CCNCC5)cnc4c3)cc2o1 [Compound 245]
[1]; [3]
  pIC50: 6.00 to 7.00
[1]; Homo sapiens, RT-qPCR
  AC50: 100 to 1000 nM
[1]; [4]
  pIC50: 6.00 to 7.00
[2]
  pIC50: 6.00 to 7.00

## Cc1cn2nc(-c3ccc4c(=O)n([C@@H]5CCNC6(CC6)C5)cnc4c3)cc(C)c2n1 [Compound 444]
[1]; Table 5 panel, canonical junction qPCR, compound concentration having 50% response in CJ decrease, read-out: HTT IC50 (decrease in CJ mRNA levels)
  pIC50: 6.00 to 7.00
[1]; decrease in HTT canonical junction (CJ) mRNA, RT-qPCR, read-out: HTT CJ IC50
  pIC50: 6.00 to 7.00
[1]; RT-qPCR
  AC50: 100 to 1000 nM
[2]
  pIC50: > 7.00

## Cc1cn2nc(-c3ccc4c(=O)n(C5CCNCC5)ncc4c3)cc2c(C)n1 [Compound 260]
[1]; [3]
  pIC50: 6.00 to 7.00
[1]; Homo sapiens, RT-qPCR
  AC50: 100 to 1000 nM
[1]; [4]
  pIC50: 6.00 to 7.00
[2]
  pIC50: 6.00 to 7.00

## Cc1cn2cc(-c3ccc4c(=O)n(C5CCNCC5)ncc4c3)cc(C)c2n1 [Compound 257]
[1]; [3]
  pIC50: 6.00 to 7.00
[1]; Homo sapiens, RT-qPCR
  AC50: 100 to 1000 nM
[1]; [4]
  pIC50: 6.00 to 7.00
[2]
  pIC50: 6.00 to 7.00

## O=c1c2ccc(-c3cn[nH]c3)cc2cnn1C1CCNCC1 [Compound 261]
[1]; [3]
  pIC50: < 5.00
[1]; Homo sapiens, RT-qPCR
  AC50: > 10000 nM
[1]; [4]
  pIC50: < 5.00
[2]
  pIC50: < 5.00

## Cc1cn2nc(-c3ccc4c(=O)n(C5CCN(C)CC5)ncc4c3)cc(C)c2n1 [Compound 265]
[1]; [3]
  pIC50: > 7.00
[1]; Homo sapiens, RT-qPCR
  AC50: < 100 nM
[1]; [4]
  pIC50: > 7.00
[2]
  pIC50: > 7.00
